Test results as given in PMC3969020 (Biochemistry, 2014).

Key:
Type in all cases: biochemical
[1] = biological target: T1, Horse liver alcohol dehydrogenase (ADH), E isoenzyme (Equus caballus, UniProt P00327, V208A); assay: product inhibition against NAD+
[2] = biological target: T2, Horse liver alcohol dehydrogenase (ADH), E isoenzyme (Equus caballus, UniProt P00327); assay: product inhibition against NAD+
[3] = biological target: T2, Horse liver alcohol dehydrogenase (ADH), E isoenzyme; assay: initial velocity and product inhibition kinetics
[4] = biological target: T1, Horse liver alcohol dehydrogenase (ADH), E isoenzyme; assay: X-ray crystal structure, […] Å

T1 sequence (P00327 2-375 V208A): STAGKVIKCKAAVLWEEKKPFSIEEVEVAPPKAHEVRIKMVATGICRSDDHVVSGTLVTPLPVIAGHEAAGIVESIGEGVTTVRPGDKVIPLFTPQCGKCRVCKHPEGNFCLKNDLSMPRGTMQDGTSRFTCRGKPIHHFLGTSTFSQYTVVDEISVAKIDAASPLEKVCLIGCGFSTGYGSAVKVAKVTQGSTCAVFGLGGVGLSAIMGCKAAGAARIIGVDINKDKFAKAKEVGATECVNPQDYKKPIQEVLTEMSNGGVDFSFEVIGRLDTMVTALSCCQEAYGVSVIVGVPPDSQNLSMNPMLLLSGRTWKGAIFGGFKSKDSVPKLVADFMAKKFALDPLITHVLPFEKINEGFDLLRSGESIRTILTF
T2 sequence (P00327 2-375): as the sequence (P00327 2-375 V208A) above, with A207V counted along it

Row | SMILES | Ki [1] [µM] | Ki [2] [µM] | Ki [3] [µM] | Ki [4] [µM]
1 | NC(=O)C1=CN([C@@H]2O[C@H](COP(=O)(O)OP(=O)(O)OC[C@H]3O[C@@H](n4cnc5c(N)ncnc54)[C@H](O)[C@@H]3O)[C@@H](O)[C@H]2O)C=CC1 [NADH] | 0.39 ± 0.01 | 0.31 ± 0.02 | – | –
2 | NC(=O)c1ccc[n+]([C@@H]2O[C@H](COP(=O)([O-])OP(=O)(O)OC[C@H]3O[C@@H](n4cnc5c(N)ncnc54)[C@H](O)[C@@H]3O)[C@@H](O)[C@H]2O)c1 [NAD^+] | – | – | 20 ± 5 | 59 ± 5
